Where two headings read alike, the source gives them in different places.
How the values were obtained:
IGF 3P = target: T1, IGF 3P (Homo sapiens, UniProt P08069); assay: IGF1R kinase assay (LCCA), IGF 3P; format: biochemical
T1 construct: human IGF1R kinase domain residues M954-C1367; made in house; host or cells: baculovirus expression (insect cells)
Summary of the method: (§1)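 Baculovirus-expressed human IGF1R kinase domain (M954-C1367), 4 nM, with 3 μM ATP and 4 μM poly EY in Tris-HCl pH 7.5 buffer containing MgCl2 and MnCl2, 2 h at ambient temperature. Remaining ATP read by luciferase chemiluminescence; IC50 from 10-point dose-response fitted to a four-parameter equation.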

[1] = target: T2, (Homo sapiens, UniProt P08069); assay: IGF1R kinase assay (LCCA), IGF 0P; format: biochemical
T2 construct: human IGF1R kinase domain residues M954-C1367; made in house; host or cells: baculovirus expression (insect cells)
T2 sequence (P08069 954-1367): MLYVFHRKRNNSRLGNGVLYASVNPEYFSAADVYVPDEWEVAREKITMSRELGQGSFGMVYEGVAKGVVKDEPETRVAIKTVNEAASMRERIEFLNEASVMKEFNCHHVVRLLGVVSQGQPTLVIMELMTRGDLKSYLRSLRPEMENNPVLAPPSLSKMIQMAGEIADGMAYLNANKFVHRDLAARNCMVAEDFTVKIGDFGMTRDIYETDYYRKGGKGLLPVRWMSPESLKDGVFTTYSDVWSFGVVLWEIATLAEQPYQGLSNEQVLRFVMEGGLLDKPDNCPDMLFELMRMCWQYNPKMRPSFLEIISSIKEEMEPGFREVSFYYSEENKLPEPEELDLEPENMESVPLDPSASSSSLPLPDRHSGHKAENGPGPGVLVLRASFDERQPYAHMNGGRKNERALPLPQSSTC
Summary of the method: as §1

T1 sequence (P08069 954-1367): as above

SMILES | IC50 (IGF 3P) [nM] | IC50 [1] [nM] | IC50 (IGF 3P; IGF 3P) [nM] | IC50 ([1]; IGF 0P) [nM]
Cc1cc(Nc2cc(N3CCN(C)CC3)nc(NCc3cc(C)no3)n2)[nH]n1 [Example 626, N^2-[(3-methylisoxazol-5-yl)methyl]-6-(4-methylpiperazin-1-yl)-N^4-(3-methyl-1H-pyrazol-5-yl)pyrimidine-2,4-diamine] | 50 to 500 | 500 to 5000 | – | –
Cc1cc(Nc2cc(N3CCOCC3)nc(NCc3cc(C)no3)n2)[nH]n1 [Example 627, N^2-[(3-methylisoxazol-5-yl)methyl]-N^4-(3-methyl-1H-pyrazol-5-yl)-6-morpholin-4-ylpyrimidine-2,4-diamine] | 50 to 500 | 500 to 5000 | – | –
CN1CCN(c2cc(Nc3cc(C4CC4)[nH]n3)nc(NCc3cc(-c4ccncn4)no3)n2)CC1 [Example 628, N^4-(5-cyclopropyl-1H-pyrazol-3-yl)-6-(4-methylpiperazin-1-yl)-N^2-[(3-pyrimidin-4-ylisoxazol-5-yl)methyl]pyrimidine-2,4-diamine] | < 50 | 50 to 500 | – | –
CN1CCN(c2cc(Nc3cc(C4CC4)[nH]n3)nc(NCc3cc(-c4ccoc4)no3)n2)CC1 [Example 629, N^4-(5-cyclopropyl-1H-pyrazol-3-yl)-N^2-[(3-furan-3-ylisoxazol-5-yl)methyl]-6-(4-methylpiperazin-1-yl)pyrimidine-2,4-diamine] | < 50 | 50 to 500 | – | –
Cc1cc(CNc2nc(Nc3cc(C4CC4)[nH]n3)cc(NC3CC4CCC(C3)N4C)n2)on1 (stereo not shown) [Example 630, N^4-(5-cyclopropyl-1H-pyrazol-3-yl)-N^6-(8-methyl-8-azabicyclo[3.2.1]oct-3-yl)-N^2-[(3-methylisoxazol-5-yl)methyl]pyrimidine-2,4,6-triamine] | < 50 | 50 to 500 | – | –
Cc1cc(CNc2nc(Nc3cc(C4CC4)[nH]n3)cc(N3CC4CC3CN4C)n2)on1 (stereo not shown) [Example 631, N^4-(5-cyclopropyl-1H-pyrazol-3-yl)-6-(5-methyl-2,5-diazabicyclo[2.2.1]hept-2-yl)-N^2-[(3-methylisoxazol-5-yl)methyl]pyrimidine-2,4-diamine] | < 50 | 50 to 500 | – | –
Cc1cc(CNc2nc(Nc3cc(C4CC4)[nH]n3)cc(NC3CC4CCC3C4)n2)on1 (stereo not shown) [Example 634, N^4-bicyclo[2.2.1]hept-2-yl-N^6-(5-cyclopropyl-1H-pyrazol-3-yl)-N^2-[(3-methylisoxazol-5-yl)methyl]pyrimidine-2,4,6-triamine] | < 50 | 50 to 500 | – | –
Cc1cc(CNc2nc(Nc3cc(C4CC4)[nH]n3)cc(N3C[C@H]4C[C@@H]3CN4Cc3ccccc3)n2)on1 [Example 635, N^4-(5-cyclopropyl-1H-pyrazol-3-yl)-N^2-[(3-methylisoxazol-5-yl)methyl]-6-[(1R,4R)-5-(phenylmethyl)-2,5-diazabicyclo[2.2.1]hept-2-yl]pyrimidine-2,4-diamine] | < 50 | 50 to 500 | – | –
CC(C)c1cc(CNc2nc(Nc3cc(C4CC4)[nH]n3)cc(N3C[C@H]4C[C@@H]3CN4Cc3ccccc3)n2)on1 [Example 636, N^4-(5-cyclopropyl-1H-pyrazol-3-yl)-N^2-{[3-(1-methylethyl)isoxazol-5-yl]methyl}-6-[(1R,4R)-5-(phenylmethyl)-2,5-diazabicyclo[2.2.1]hept-2-yl]pyrimidine-2,4-diamine] | – | – | < 50 | 50 to 500
c1cc(-c2cc(CNc3nc(Nc4cc(C5CC5)[nH]n4)cc(N4CCOCC4)n3)on2)ncn1 [Example 637, N^4-(5-cyclopropyl-1H-pyrazol-3-yl)-6-morpholin-4-yl-N^2-[(3-pyrimidin-4-ylisoxazol-5-yl)methyl]pyrimidine-2,4-diamine] | < 50 | 50 to 500 | – | –
CN(C)CCOc1cc(Nc2cc(C3CC3)[nH]n2)nc(NCc2cc(-c3ccncn3)no2)n1 [Example 638, N^4-(5-cyclopropyl-1H-pyrazol-3-yl)-6-{[2-(dimethylamino)ethyl]oxy}-N^2-[(3-pyrimidin-4-ylisoxazol-5-yl)methyl]pyrimidine-2,4-diamine] | < 50 | 50 to 500 | – | –
Cc1cc(Nc2cc(C3CC3)[nH]n2)nc(NCc2cc(-c3ccc(F)cn3)no2)n1 [Example 639, N^4-(5-cyclopropyl-1H-pyrazol-3-yl)-N^2-{[3-(5-fluoropyridin-2-yl)isoxazol-5-yl]methyl}-6-methylpyrimidine-2,4-diamine] | 500 to 5000 | 500 to 5000 | – | –
CN1CCN(c2cc(Nc3cc(C4CC4)[nH]n3)nc(NCc3cc(-c4cccs4)no3)n2)CC1 [Example 640, N^4-(5-cyclopropyl-1H-pyrazol-3-yl)-6-(4-methylpiperazin-1-yl)-N^2-{[3-(2-thienyl)isoxazol-5-yl]methyl}pyrimidine-2,4-diamine] | < 50 | 50 to 500 | – | –
CN(C)CCOc1cc(Nc2cc(C3CC3)[nH]n2)nc(NCc2cc(-c3ccccn3)no2)n1 [Example 641, N^4-(5-cyclopropyl-1H-pyrazol-3-yl)-6-{[2-(dimethylamino)ethyl]oxy}-N^2-[(3-pyridin-2-ylisoxazol-5-yl)methyl]pyrimidine-2,4-diamine] | < 50 | 50 to 500 | – | –
CN1CCN(c2cc(Nc3cc(C4CC4)n[nH]3)nc(NCc3cc(-c4cncnc4)no3)n2)CC1 [Example 642, N^4-(3-cyclopropyl-1H-pyrazol-5-yl)-6-(4-methylpiperazin-1-yl)-N^2-[(3-pyrimidin-5-ylisoxazol-5-yl)methyl]pyrimidine-2,4-diamine] | < 50 | 50 to 500 | – | –
c1ncc(-c2cc(CNc3nc(Nc4cc(C5CC5)n[nH]4)cc(N4CCOCC4)n3)on2)cn1 [Example 643, N^4-(3-cyclopropyl-1H-pyrazol-5-yl)-6-morpholin-4-yl-N^2-[(3-pyrimidin-5-ylisoxazol-5-yl)methyl]pyrimidine-2,4-diamine] | 50 to 500 | 50 to 500 | – | –

Now from value to compound:

IC50 (IGF 3P) [nM] | IC50 [1] [nM] | IC50 (IGF 3P; IGF 3P) [nM] | IC50 ([1]; IGF 0P) [nM] | SMILES
< 50 | 50 to 500 | – | – | Cc1cc(CNc2nc(Nc3cc(C4CC4)[nH]n3)cc(OCCN3CCCC3)n2)on1 [Example 647, N^4-(5-cyclopropyl-1H-pyrazol-3-yl)-N^2[(3-methylisoxazol-5-yl)methyl]-6-[(2-pyrrolidin-1-ylethyl)oxy]pyrimidine-2,4-diamine]
< 50 | 50 to 500 | – | – | CN1CCN(c2cc(Nc3cc(C4CC4)[nH]n3)nc(NCc3cc(-c4nccs4)no3)n2)CC1 [Example 648, N^4-(5-cyclopropyl-1H-pyrazol-3-yl)-6-(4-methylpiperazin-1-yl)-N^2-{[3-(1,3-thiazol-2-yl)isoxazol-5-yl]methyl}pyrimidine-2,4-diamine]
500 to 5000 | 500 to 5000 | – | – | Cc1cc(Nc2cc(OCCN(C)C)nc(NCc3cc(C)no3)n2)[nH]n1 [Example 650, 6-{[2-(dimethylamino)ethyl]oxy}-N^2-[(3-methylisoxazol-5-yl)methyl]-N^4-(3-methyl-1H-pyrazol-5-yl)pyrimidine-2,4-diamine]
< 50 | 50 to 500 | – | – | CCc1cc(CNc2nc(Nc3cc(C4CC4)n[nH]3)cc(N3CCN(C)CC3)n2)on1 [Example 655, N^4-(3-cyclopropyl-1H-pyrazol-5-yl)-N^2-[(3-ethylisoxazol-5-yl)methyl]-6-(4-methylpiperazin-1-yl)pyrimidine-2,4-diamine]
< 50 | 50 to 500 | – | – | CCc1cc(CNc2nc(Nc3cc(C4CC4)n[nH]3)cc(N3CCOCC3)n2)on1 [Example 656, N^4-(3-cyclopropyl-1H-pyrazol-5-yl)-N^2-[(3-ethylisoxazol-5-yl)methyl]-6-morpholin-4-ylpyrimidine-2,4-diamine]
< 50 | 50 to 500 | – | – | CCc1cc(CNc2nc(Nc3cc(C4CC4)n[nH]3)cc(OCCN(C)C)n2)on1 [Example 657, N^4-(3-cyclopropyl-1H-pyrazol-5-yl)-6-{[2-(dimethylamino)ethyl]oxy}-N^2-[(3-ethylisoxazol-5-yl)methyl]pyrimidine-2,4-diamine]
50 to 500 | 50 to 500 | – | – | CN1CCN(c2cc(Nc3cc(C4CC4)n[nH]3)nc(NCc3cc(-c4ccnc(N)n4)no3)n2)CC1 [Example 660, N^2-{[3-(2-aminopyrimidin-4-yl)isoxazol-5-yl]methyl}-N^4-(3-cyclopropyl-1H-pyrazol-5-yl)-6-(4-methylpiperazin-1-yl)pyrimidine-2,4-diamine]
< 50 | 50 to 500 | – | – | CCN1CCN(c2cc(Nc3cc(C4CC4)n[nH]3)nc(NCc3cc(C(C)C)no3)n2)CC1 [Example 661, N^4-(3-cyclopropyl-1H-pyrazol-5-yl)-6-(4-ethylpiperazin-1-yl)-N^2-{[3-(1-methylethyl)isoxazol-5-yl]methyl}pyrimidine-2,4-diamine]
< 50 | 50 to 500 | – | – | CC(C)c1cc(CNc2nc(Nc3cc(C4CC4)n[nH]3)cc(N3CCC(CCO)CC3)n2)on1 [Example 662, 2-(1-{6-[(3-cyclopropyl-1H-pyrazol-5-yl)amino]-2-({[3-(1-methylethyl)isoxazol-5-yl]methyl}amino)pyrimidin-4-yl}piperidin-4-yl)ethanol]
< 50 | 50 to 500 | – | – | CC(C)c1cc(CNc2nc(Nc3cc(C4CC4)n[nH]3)cc(N3CCN(CCO)CC3)n2)on1 [Example 663, 2-(4-{6-[(3-cyclopropyl-1H-pyrazol-5-yl)amino]-2-({[3-(1-methylethyl)isoxazol-5-yl]methyl}amino)pyrimidin-4-yl}piperazin-1-yl)ethanol]
